The record followed here is the kinase profiling compilation of Christmann-Franck et al. (2016).

Structures are written as SMILES.

EPHA4 (human), sequence (P54764 whole entry, looked up): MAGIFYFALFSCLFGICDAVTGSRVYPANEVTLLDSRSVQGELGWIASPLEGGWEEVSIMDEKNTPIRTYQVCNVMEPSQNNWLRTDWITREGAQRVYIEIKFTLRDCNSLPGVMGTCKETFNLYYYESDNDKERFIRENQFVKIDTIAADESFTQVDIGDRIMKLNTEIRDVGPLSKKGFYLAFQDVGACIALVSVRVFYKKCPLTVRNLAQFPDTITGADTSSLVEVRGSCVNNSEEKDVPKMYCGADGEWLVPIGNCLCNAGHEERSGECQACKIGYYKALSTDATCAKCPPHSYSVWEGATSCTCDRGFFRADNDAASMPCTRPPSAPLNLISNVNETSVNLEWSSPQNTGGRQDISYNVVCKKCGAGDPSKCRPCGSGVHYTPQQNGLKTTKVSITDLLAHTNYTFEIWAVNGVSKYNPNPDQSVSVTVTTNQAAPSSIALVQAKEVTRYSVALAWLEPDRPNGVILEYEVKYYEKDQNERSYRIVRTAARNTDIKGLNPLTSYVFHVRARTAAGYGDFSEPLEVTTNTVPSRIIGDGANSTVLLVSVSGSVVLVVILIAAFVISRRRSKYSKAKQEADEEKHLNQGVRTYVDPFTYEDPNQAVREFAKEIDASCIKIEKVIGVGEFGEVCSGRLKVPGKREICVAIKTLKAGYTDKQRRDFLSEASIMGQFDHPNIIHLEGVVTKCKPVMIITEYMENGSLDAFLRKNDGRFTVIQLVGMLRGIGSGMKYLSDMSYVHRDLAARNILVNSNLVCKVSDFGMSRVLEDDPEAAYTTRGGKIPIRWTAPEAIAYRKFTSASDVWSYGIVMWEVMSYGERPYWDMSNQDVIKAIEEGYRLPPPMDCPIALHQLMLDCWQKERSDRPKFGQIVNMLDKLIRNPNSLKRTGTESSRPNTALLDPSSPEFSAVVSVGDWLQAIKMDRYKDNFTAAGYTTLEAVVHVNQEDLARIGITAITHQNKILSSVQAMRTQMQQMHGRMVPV
MAP4K5 (human), sequence (Q9Y4K4 whole entry, looked up): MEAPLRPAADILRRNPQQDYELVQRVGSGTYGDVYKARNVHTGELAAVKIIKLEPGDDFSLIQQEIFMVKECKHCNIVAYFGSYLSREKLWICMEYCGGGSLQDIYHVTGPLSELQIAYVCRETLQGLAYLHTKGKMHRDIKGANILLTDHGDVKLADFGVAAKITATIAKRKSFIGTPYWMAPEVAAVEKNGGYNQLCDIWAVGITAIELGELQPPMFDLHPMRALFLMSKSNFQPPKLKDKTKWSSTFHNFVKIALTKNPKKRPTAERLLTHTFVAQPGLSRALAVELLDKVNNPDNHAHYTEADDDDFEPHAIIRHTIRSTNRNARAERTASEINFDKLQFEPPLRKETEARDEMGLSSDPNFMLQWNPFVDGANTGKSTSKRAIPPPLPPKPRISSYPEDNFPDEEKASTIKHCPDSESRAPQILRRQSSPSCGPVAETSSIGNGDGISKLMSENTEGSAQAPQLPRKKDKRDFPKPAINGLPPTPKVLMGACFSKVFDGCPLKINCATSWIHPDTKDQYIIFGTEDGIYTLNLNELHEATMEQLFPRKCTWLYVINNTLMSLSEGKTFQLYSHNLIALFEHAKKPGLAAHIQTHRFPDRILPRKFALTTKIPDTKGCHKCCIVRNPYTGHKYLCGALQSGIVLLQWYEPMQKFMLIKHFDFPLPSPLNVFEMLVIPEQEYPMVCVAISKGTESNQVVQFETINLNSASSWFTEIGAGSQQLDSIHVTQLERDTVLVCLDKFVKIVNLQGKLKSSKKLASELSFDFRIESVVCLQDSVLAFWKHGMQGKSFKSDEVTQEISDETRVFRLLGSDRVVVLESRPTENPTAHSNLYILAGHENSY
CAMK4 (human), sequence (Q16566 whole entry, looked up): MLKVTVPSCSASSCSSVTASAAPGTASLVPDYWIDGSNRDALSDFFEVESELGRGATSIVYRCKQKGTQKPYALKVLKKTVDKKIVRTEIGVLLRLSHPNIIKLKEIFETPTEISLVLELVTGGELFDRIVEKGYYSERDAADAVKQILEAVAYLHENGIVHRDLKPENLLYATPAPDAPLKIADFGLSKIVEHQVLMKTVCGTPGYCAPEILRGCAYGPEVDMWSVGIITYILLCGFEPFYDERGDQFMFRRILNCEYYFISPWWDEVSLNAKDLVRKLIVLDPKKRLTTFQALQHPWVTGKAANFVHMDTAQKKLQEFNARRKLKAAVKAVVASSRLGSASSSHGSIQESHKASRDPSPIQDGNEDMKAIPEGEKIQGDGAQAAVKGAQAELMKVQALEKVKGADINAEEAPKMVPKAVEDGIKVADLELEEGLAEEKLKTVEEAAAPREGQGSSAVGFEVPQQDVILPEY

The target in the first experiment is ACVRL1 (human) (UniProt P37023). The experiment can be described thus: radiometric filter-binding kinase assay, Kinase HotSpot. The following applies: compound 0.5 µM; ATP 10 µM.
ACVRL1 (human), sequence (P37023 whole entry, looked up): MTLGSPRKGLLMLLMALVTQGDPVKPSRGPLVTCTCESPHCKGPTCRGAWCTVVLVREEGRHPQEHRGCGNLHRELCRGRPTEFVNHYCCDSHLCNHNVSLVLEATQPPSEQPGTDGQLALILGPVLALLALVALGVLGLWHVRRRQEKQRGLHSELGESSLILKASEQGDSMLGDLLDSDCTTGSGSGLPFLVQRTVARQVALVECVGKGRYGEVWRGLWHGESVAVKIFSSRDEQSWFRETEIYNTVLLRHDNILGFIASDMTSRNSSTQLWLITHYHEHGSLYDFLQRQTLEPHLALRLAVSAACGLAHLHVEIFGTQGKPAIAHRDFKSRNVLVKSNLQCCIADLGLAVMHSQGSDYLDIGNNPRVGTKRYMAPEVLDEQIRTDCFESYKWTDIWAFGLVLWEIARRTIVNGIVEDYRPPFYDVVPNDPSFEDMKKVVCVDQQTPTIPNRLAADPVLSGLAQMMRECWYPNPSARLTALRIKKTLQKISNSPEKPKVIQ
For orientation: residual activity means the signal under treatment as a percentage of the control signal. For `O=C1Nc2ccc(Cl)cc2/C1=C/c1cc(Cl)c(O)c(Cl)c1`, the residual activity amounted to 96.4%.
Turning to `O=C1NC(=O)/C(=C/c2ccc3c(c2)OC(F)(F)O3)S1`, the residual activity was 97.1%.
On to `N#CC(C#N)=C(N)/C(C#N)=C/c1ccc(O)cc1`, for which the residual activity was determined as 88.8%.

The next experiment deals with AKT1 (human) (UniProt P31749). The description is as above. The conditions noted are these: compound 0.5 µM; ATP 10 µM.
On to `O=C1Nc2ccc(Cl)cc2/C1=C/c1cc(Cl)c(O)c(Cl)c1`, for which the residual activity amounted to 97.9%.
The same measure, in the same setting: for `O=C1NC(=O)/C(=C/c2ccc3c(c2)OC(F)(F)O3)S1` the value was 98.2%.
The same measure, in the same setting: for `N#CC(C#N)=C(N)/C(C#N)=C/c1ccc(O)cc1` the value was 99.2%.

A further experiment has as its target ALK (human) (UniProt Q9UM73). Described as above. The conditions noted are these: compound 0.5 µM; ATP 10 µM.
In the case of `O=C1Nc2ccc(Cl)cc2/C1=C/c1cc(Cl)c(O)c(Cl)c1`, the residual activity is 65.8%.
On the same count and under the same terms, for `O=C1NC(=O)/C(=C/c2ccc3c(c2)OC(F)(F)O3)S1` the value was 83.4%.
In the case of `N#CC(C#N)=C(N)/C(C#N)=C/c1ccc(O)cc1`, the residual activity came out at 109%.

The target of a further experiment is CAMK1 (human) (UniProt Q14012). The experiment is described as above. The conditions noted are these: compound 0.5 µM; ATP 10 µM.
CAMK1 (human), sequence (Q14012 whole entry, looked up): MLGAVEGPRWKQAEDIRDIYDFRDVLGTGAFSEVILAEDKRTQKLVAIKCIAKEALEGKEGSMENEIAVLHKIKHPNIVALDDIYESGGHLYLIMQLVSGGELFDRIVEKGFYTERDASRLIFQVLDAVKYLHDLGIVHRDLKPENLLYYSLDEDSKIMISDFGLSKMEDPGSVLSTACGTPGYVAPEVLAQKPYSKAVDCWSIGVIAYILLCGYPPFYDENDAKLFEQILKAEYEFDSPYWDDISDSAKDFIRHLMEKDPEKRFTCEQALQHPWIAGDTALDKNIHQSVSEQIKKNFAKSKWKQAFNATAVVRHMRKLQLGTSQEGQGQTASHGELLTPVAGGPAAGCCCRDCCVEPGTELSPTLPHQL
In the case of `O=C1Nc2ccc(Cl)cc2/C1=C/c1cc(Cl)c(O)c(Cl)c1`, the residual activity worked out at 94.9%.
With `O=C1NC(=O)/C(=C/c2ccc3c(c2)OC(F)(F)O3)S1`, the residual activity is 89.9%.
As for `N#CC(C#N)=C(N)/C(C#N)=C/c1ccc(O)cc1`, the residual activity amounted to 97.2%.

A further experiment has as its target CAMK4 (human) (UniProt Q16566). The experiment is described as above. The following applies: compound 0.5 µM; ATP 10 µM.
On to `O=C1Nc2ccc(Cl)cc2/C1=C/c1cc(Cl)c(O)c(Cl)c1`, for which the residual activity was found to be 96.8%.
For the compound `O=C1NC(=O)/C(=C/c2ccc3c(c2)OC(F)(F)O3)S1`, the residual activity is 101%.
With `N#CC(C#N)=C(N)/C(C#N)=C/c1ccc(O)cc1`, the residual activity was 97.2%.

A further experiment concerns the target CDC42BPB (human) (UniProt Q9Y5S2). The description is as above. The following applies: compound 0.5 µM; ATP 10 µM.
Take `O=C1Nc2ccc(Cl)cc2/C1=C/c1cc(Cl)c(O)c(Cl)c1`: the residual activity was found to be 91.4%.
Take `O=C1NC(=O)/C(=C/c2ccc3c(c2)OC(F)(F)O3)S1`: the residual activity came out at 96.4%.
Regarding `N#CC(C#N)=C(N)/C(C#N)=C/c1ccc(O)cc1`, the residual activity was 109%.

The next experiment concerns the target CDK2 CCNA2 (human) (UniProt P24941+P20248). Described as above. The following applies: compound 0.5 µM; ATP 10 µM.
As for `O=C1Nc2ccc(Cl)cc2/C1=C/c1cc(Cl)c(O)c(Cl)c1`, the residual activity was 99.5%.
For the compound `O=C1NC(=O)/C(=C/c2ccc3c(c2)OC(F)(F)O3)S1`, the residual activity was found to be 107%.
Take `N#CC(C#N)=C(N)/C(C#N)=C/c1ccc(O)cc1`: the residual activity was determined as 97.9%.

A further experiment deals with CHEK2 (human) (UniProt O96017). Described as above. The following applies: compound 0.5 µM; ATP 10 µM.
`O=C1Nc2ccc(Cl)cc2/C1=C/c1cc(Cl)c(O)c(Cl)c1`: the residual activity came to 70.2%.
Turning to `O=C1NC(=O)/C(=C/c2ccc3c(c2)OC(F)(F)O3)S1`, the residual activity came to 97.9%.
For `N#CC(C#N)=C(N)/C(C#N)=C/c1ccc(O)cc1`, the residual activity is 95.5%.

In the next experiment the target is CSNK1G1 (human) (UniProt Q9HCP0). The experiment is described as above. The following applies: compound 0.5 µM; ATP 10 µM.
CSNK1G1 (human), sequence (Q9HCP0 whole entry, looked up): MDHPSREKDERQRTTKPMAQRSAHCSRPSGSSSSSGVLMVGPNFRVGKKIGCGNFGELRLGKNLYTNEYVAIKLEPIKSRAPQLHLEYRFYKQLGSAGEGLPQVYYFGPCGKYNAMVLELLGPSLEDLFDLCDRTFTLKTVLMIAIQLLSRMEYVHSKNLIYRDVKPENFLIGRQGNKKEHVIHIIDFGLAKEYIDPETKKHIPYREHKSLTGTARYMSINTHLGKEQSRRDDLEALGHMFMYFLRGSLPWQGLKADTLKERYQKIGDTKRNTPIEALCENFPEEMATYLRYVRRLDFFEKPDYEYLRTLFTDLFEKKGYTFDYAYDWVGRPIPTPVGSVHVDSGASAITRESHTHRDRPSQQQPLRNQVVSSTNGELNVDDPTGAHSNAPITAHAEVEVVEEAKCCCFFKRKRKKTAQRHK
Regarding `O=C1Nc2ccc(Cl)cc2/C1=C/c1cc(Cl)c(O)c(Cl)c1`, the residual activity was determined as 89%.
Same read-out and setting: then `O=C1NC(=O)/C(=C/c2ccc3c(c2)OC(F)(F)O3)S1`, with 75.5%; and `N#CC(C#N)=C(N)/C(C#N)=C/c1ccc(O)cc1`, with 93.4%.

In the next experiment the target is CSNK2A1 (human) (UniProt P68400). Described as above. The following applies: compound 0.5 µM; ATP 10 µM.
CSNK2A1 (human), sequence (P68400 whole entry, looked up): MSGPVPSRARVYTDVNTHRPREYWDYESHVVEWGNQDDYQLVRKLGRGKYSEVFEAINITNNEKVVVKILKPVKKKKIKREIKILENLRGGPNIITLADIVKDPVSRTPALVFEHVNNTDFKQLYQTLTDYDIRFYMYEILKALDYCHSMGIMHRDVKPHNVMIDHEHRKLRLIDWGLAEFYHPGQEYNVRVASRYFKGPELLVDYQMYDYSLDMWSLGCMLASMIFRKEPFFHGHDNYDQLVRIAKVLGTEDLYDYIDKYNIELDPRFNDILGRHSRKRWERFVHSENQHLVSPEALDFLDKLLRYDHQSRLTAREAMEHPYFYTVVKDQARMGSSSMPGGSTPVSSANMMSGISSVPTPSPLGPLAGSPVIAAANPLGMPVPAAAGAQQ
In the case of `O=C1Nc2ccc(Cl)cc2/C1=C/c1cc(Cl)c(O)c(Cl)c1`, the residual activity came to 26.5%.
On the same count and under the same terms, then `O=C1NC(=O)/C(=C/c2ccc3c(c2)OC(F)(F)O3)S1`, with 22.6%.
Regarding `N#CC(C#N)=C(N)/C(C#N)=C/c1ccc(O)cc1`, the residual activity was 104%.

Another experiment has as its target DCLK2 (human) (UniProt Q8N568). Described as above. The conditions noted are these: compound 0.5 µM; ATP 10 µM.
With `O=C1Nc2ccc(Cl)cc2/C1=C/c1cc(Cl)c(O)c(Cl)c1`, the residual activity is 98%.
On to `O=C1NC(=O)/C(=C/c2ccc3c(c2)OC(F)(F)O3)S1`, for which the residual activity worked out at 99.7%.
As to `N#CC(C#N)=C(N)/C(C#N)=C/c1ccc(O)cc1`, the residual activity amounted to 101%.

The next experiment concerns the target DYRK1B (human) (UniProt Q9Y463). The experiment is described as above. The following applies: compound 0.5 µM; ATP 10 µM.
On to `O=C1Nc2ccc(Cl)cc2/C1=C/c1cc(Cl)c(O)c(Cl)c1`, for which the residual activity amounted to 90.9%.
Take `O=C1NC(=O)/C(=C/c2ccc3c(c2)OC(F)(F)O3)S1`: the residual activity stood at 101%.
Take `N#CC(C#N)=C(N)/C(C#N)=C/c1ccc(O)cc1`: the residual activity worked out at 101%.

In another experiment the target is DYRK3 (human) (UniProt O43781). The experiment is described as above. The following applies: compound 0.5 µM; ATP 10 µM.
Consider `O=C1Nc2ccc(Cl)cc2/C1=C/c1cc(Cl)c(O)c(Cl)c1`, for which the residual activity amounted to 91.8%.
Regarding `O=C1NC(=O)/C(=C/c2ccc3c(c2)OC(F)(F)O3)S1`, the residual activity came to 100%.
For `N#CC(C#N)=C(N)/C(C#N)=C/c1ccc(O)cc1`, the residual activity is 97.7%.

For a further experiment, the target named is EPHA2 (human) (UniProt P29317). The experiment is described as above. The following applies: compound 0.5 µM; ATP 10 µM.
As to `O=C1Nc2ccc(Cl)cc2/C1=C/c1cc(Cl)c(O)c(Cl)c1`, the residual activity was 95%.
As for `O=C1NC(=O)/C(=C/c2ccc3c(c2)OC(F)(F)O3)S1`, the residual activity worked out at 96.3%.
Turning to `N#CC(C#N)=C(N)/C(C#N)=C/c1ccc(O)cc1`, the residual activity was found to be 100%.

Another experiment concerns the target EPHA4 (human) (UniProt P54764). The experiment is described as above. The conditions noted are these: compound 0.5 µM; ATP 10 µM.
Regarding `O=C1Nc2ccc(Cl)cc2/C1=C/c1cc(Cl)c(O)c(Cl)c1`, the residual activity is 93.1%.
In the case of `O=C1NC(=O)/C(=C/c2ccc3c(c2)OC(F)(F)O3)S1`, the residual activity stood at 95.9%.
`N#CC(C#N)=C(N)/C(C#N)=C/c1ccc(O)cc1`: the residual activity is 96%.

In a further experiment the target is FGFR4 (human) (UniProt P22455). Described as above. The following applies: compound 0.5 µM; ATP 10 µM.
FGFR4 (human), sequence (P22455 whole entry, looked up): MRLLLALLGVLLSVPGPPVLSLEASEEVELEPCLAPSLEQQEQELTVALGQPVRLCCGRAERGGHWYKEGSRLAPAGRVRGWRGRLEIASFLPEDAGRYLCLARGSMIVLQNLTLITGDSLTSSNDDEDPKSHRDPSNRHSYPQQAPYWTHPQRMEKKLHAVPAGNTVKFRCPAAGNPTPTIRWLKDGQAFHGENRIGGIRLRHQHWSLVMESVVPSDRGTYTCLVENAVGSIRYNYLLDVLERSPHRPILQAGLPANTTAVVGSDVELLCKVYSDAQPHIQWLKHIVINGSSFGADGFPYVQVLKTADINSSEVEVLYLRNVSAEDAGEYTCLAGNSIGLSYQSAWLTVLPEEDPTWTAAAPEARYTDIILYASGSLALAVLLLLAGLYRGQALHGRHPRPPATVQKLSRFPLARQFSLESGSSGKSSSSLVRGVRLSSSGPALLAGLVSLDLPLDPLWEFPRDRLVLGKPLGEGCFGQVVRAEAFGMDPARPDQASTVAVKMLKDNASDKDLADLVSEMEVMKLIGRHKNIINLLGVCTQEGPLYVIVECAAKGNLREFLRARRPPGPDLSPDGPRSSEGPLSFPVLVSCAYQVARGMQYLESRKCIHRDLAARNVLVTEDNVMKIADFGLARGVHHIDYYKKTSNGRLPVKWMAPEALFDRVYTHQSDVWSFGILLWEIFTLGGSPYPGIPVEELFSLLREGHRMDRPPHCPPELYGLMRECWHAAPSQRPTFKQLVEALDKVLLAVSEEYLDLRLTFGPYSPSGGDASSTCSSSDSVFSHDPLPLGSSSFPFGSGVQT
For `O=C1Nc2ccc(Cl)cc2/C1=C/c1cc(Cl)c(O)c(Cl)c1`, the residual activity was 98%.
As for `O=C1NC(=O)/C(=C/c2ccc3c(c2)OC(F)(F)O3)S1`, the residual activity is 91%.
With `N#CC(C#N)=C(N)/C(C#N)=C/c1ccc(O)cc1`, the residual activity came to 91.1%.

The next experiment addresses HIPK4 (human) (UniProt Q8NE63). The description is as above. The following applies: compound 0.5 µM; ATP 10 µM.
As to `O=C1Nc2ccc(Cl)cc2/C1=C/c1cc(Cl)c(O)c(Cl)c1`, the residual activity turned out to be 88.4%.
In the case of `O=C1NC(=O)/C(=C/c2ccc3c(c2)OC(F)(F)O3)S1`, the residual activity worked out at 99.4%.
Still for that read-out and setting: then `N#CC(C#N)=C(N)/C(C#N)=C/c1ccc(O)cc1`, with 99.7%.

The target in a further experiment is JAK1 JH1 catalytic (human) (UniProt P23458). The description is as above. The conditions noted are these: compound 0.5 µM; ATP 10 µM.
As to `O=C1Nc2ccc(Cl)cc2/C1=C/c1cc(Cl)c(O)c(Cl)c1`, the residual activity came out at 103%.
Same read-out and setting: then `O=C1NC(=O)/C(=C/c2ccc3c(c2)OC(F)(F)O3)S1`, with 104%; and `N#CC(C#N)=C(N)/C(C#N)=C/c1ccc(O)cc1`, with 99.4%.

For the next experiment, the target named is MAP3K3 (human) (UniProt Q99759). The description is as above. The conditions noted are these: compound 0.5 µM; ATP 10 µM.
As for `O=C1Nc2ccc(Cl)cc2/C1=C/c1cc(Cl)c(O)c(Cl)c1`, the residual activity came to 101%.
On the same count and under the same terms, for `O=C1NC(=O)/C(=C/c2ccc3c(c2)OC(F)(F)O3)S1` the value was 103%; for `N#CC(C#N)=C(N)/C(C#N)=C/c1ccc(O)cc1`, 78.6%.

The target in the next experiment is MAP3K8 (human) (UniProt P41279). The description is as above. The following applies: compound 0.5 µM; ATP 10 µM.
As for `O=C1Nc2ccc(Cl)cc2/C1=C/c1cc(Cl)c(O)c(Cl)c1`, the residual activity is 93.1%.
With `O=C1NC(=O)/C(=C/c2ccc3c(c2)OC(F)(F)O3)S1`, the residual activity worked out at 93%.
Regarding `N#CC(C#N)=C(N)/C(C#N)=C/c1ccc(O)cc1`, the residual activity came out at 96%.

A further experiment addresses MAP4K5 (human) (UniProt Q9Y4K4). The description is as above. The conditions noted are these: compound 0.5 µM; ATP 10 µM.
Regarding `O=C1Nc2ccc(Cl)cc2/C1=C/c1cc(Cl)c(O)c(Cl)c1`, the residual activity turned out to be 75.9%.
With `O=C1NC(=O)/C(=C/c2ccc3c(c2)OC(F)(F)O3)S1`, the residual activity is 88.1%.
Regarding `N#CC(C#N)=C(N)/C(C#N)=C/c1ccc(O)cc1`, the residual activity was 99.6%.
